Assay results reported in patent publication US9062095B2, “Mutant double cyclized receptor peptides inhibiting β1-adrenoceptor antibodies” (JULIUS-MAXIMILIANS-UNIVERSTITAT-WURZBURG, priority 2007, dated 2015).
Positions of bridges follow the written chain, without caps; N, C: chain ends.

Experiments:
[1] = tested on: anti-β1-ECII antibodies; assay: ELISA-competition assay: peptide preincubated with sera/IgG of immunized antibody-positive rats, linear 25AA Cys/Cys-peptide as antigen; type: binding, rat; settings: for decrease in circulating free anti-beta1-ECII antibodies: n=6 sera (FIG. 11)
Procedure, shortened: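 Rat sera or IgG fractions from immunized anti-β1-ECII antibody-positive rats preincubated 12 h at 4° C (rotating) with linear or cyclic β1-ECII peptides at fold molar excess (1:1 peptide:IgG assumed). Residual binding measured by ELISA on linear 25AA Cys/Cys-peptide antigen, given as % blocked versus non-blocked reactivity.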

[2] = tested on: beta1-receptor antibodies; assay: in vivo prevention study: five prophylactic peptide applications, serum antibody-titers by ELISA; design: species or system rat; settings: 1.0 mg/kg body weight i.v., 4-weekly, prevention protocol (FIG. 12)
Procedure: FIG. 12 is a diagram resuming the in vivo blocking capacity of in total five (prophylatic) applications of various linear and cyclic beta1-ECII-peptides, started 3 months after the first immunization (and two subsequent beta1-ECII/GST-antigen-boosts, corresponding to a prevention protocol). Serum-titers of the beta1-receptor antibodies were determined before and 18-20 h after each peptide injection (abscissa, time in months) and are given in % of the corresponding antibody-titers of immunized untreated rats (y-axis, ordinate). The injected peptides were: 25AA Cys/Cys linear peptide (black squares), […] (white squares), 18AA Cys/Cys cyclopeptide (black diamond), 18AA Cys/Ser cyclopeptide mutant (white diamonds), and the 18AA Cys/Ser linear peptide mutant (vertically hatched diamonds). […] Black circles indicate antibody-titers of untreated regularly (every 4 weeks) immunized animals serving as reference, set at 100%.
The in-vivo blocking effects of both 25AA and 18AA Cys/Ser mutant cyclopeptides (with a Gln closure site), the 18AA Ser/Cys mutant cyclopeptide, and a mutated linear 18AA Cys/Ser peptide were analyzed after intravenous (i.v.) injection of 1.0 mg/kg body weight (Bw) of each construct into freshly immunized antibody-positive rats (i.e., use of cyclo-peptides in a kind of “prevention” study), with a first cyclopeptide-application 3 months after the initial immunization (and two subsequent boost at months 2 and 3). In total, five prophylactic applications of the various constructs were given at 4-weekly intervals, always two weeks after the monthly continued antigen boost. Sera were drawn 18-20 hours after i.v. injection and assayed for reactivity by ELISA using the 3 Cys-containing linear 25AA Cys/Cys-peptide as an antigen (FIG. 12).

[3] = tested on: rats with antibody-induced immune-cardiomyopathy; assay: in vivo therapy study: cardioprotective effect (echocardiography, hemodynamics, organ weights); design: species or system rat
Description: FIG. 17.A is a diagram showing the time course (month 0 to 20) of the internal end-systolic and end-diastolic left ventricular diameters (LVES, LVED) of GST/β1-ECII-immunized un-treated (black circles) versus GST/β1-ECII-immunized animals treated with the indicated various cyclopeptides (see legend) as determined by echocardiography (echocardiographic system: Visual Sonics, Vevo 770 (version V2.2.3), equipped with a 15-17.5 MHz transducer), whereby LVES/LVED is left ventricular end-systolic diameter/left ventricular end-diastolic diameter.
FIG. 17.B is a similar diagram showing the time course (month 0 to 20) of the internal end-systolic and end-diastolic left ventricular diameters (LVES, LVED) of GST/β1-ECII-immunized untreated (black circles) versus GST/β1-ECII-immunized animals, treated with different concentrations of the 18AA Cys/Ser cyclopeptide mutant (see legend).
FIG. 19A is a diagram depicting the time course (month 0 to 20) of the “Cardiac index” (CI) in ml/min/g (body weight) as determined by echocardiography (echocardiographic system see legend to FIG. 17a.).
The latter doses were almost equally efficient in terms of both, neutralization of circulating receptor antibodies (FIGS. 16b and c), and reversal of antibody-induced cardiomyopathic features (FIGS. 17b, 19b, 20, and 21b).

Cyclo-Ala-Asp-Glu-Ala-Arg-Arg-Cys-Tyr-Asn-Asp-Pro-Lys-Cys-Ser-Asp-Phe-Val-Gln (cyclo(ADEARRCYNDPKCSDFVQ); disulfide 7-13; SMILES CC(C)[C@@H]1NC(=O)[C@H](Cc2ccccc2)NC(=O)[C@H](CC(=O)O)NC(=O)[C@H](CO)NC(=O)[C@@H]2CSSC[C@H](NC(=O)[C@H](CCCNC(=N)N)NC(=O)[C@H](CCCNC(=N)N)NC(=O)[C@H](C)NC(=O)[C@H](CCC(=O)O)NC(=O)[C@H](CC(=O)O)NC(=O)[C@H](C)NC(=O)[C@H](CCC(N)=O)NC1=O)C(=O)N[C@@H](Cc1ccc(O)cc1)C(=O)N[C@@H](CC(N)=O)C(=O)N[C@@H](CC(=O)O)C(=O)N1CCC[C@H]1C(=O)N[C@@H](CCCCN)C(=O)N2) [18AA Cys/Ser mutant (Gln-)cyclopeptide, disulphide bond Cys7-Cys13, ring closure Ala1-Gln18]
decrease in circulating free anti-beta1-ECII antibodies ([1]; 8-fold molar excess of peptide): 53%
decrease in circulating free anti-beta1-ECII antibodies ([1]; 20-fold molar excess of peptide): 66%
decrease in circulating free anti-beta1-ECII antibodies ([1]; 80-fold molar excess of peptide): about 85%
blocking-efficiency versus unblocked sera ([1]; n=6 sera, incubation 12-14 h, 4° C., mean ±SEM (FIG. 27)): 60.0±8.3%
fraction of rat sera blocked by the peptide ([1]; n=69 sera, (Gln-)cyclopeptide mutants (FIG. 10), Cys/Ser = blocked by it alone (n=64), Ser/Cys = sera blocked by both (n=5)): About 93%
blocking efficiency (% of blocked versus non-blocked ELISA reactivity) ([1]; type1 sera (93%, n=64 of 69), FIG. 9 upper panel, ±SEM): 68±3%
blocking capacity (% of blocked versus non-blocked ELISA reactivity) ([1]; type 2 sera (7%, n=5 of 69), FIG. 9 lower panel, ±SEM): 50±8%
antibody-titer decrease after 5 injections, compared with untreated immunized animals [2]: 54.5±2%
achieved cardioprotective effect compared with 1.0 or 2.0 mg/kg ([3]; 0.25 mg/kg Bw, repeated injections every 4 weeks): clearly less efficient
cardioprotective effects compared with 1.0 or 2.0 mg/kg ([3]; 4.0 mg/kg body weight, repeated injections every 4 weeks): did not result in higher efficiency
reversal of antibody-induced cardiomyopathic features ([3]; 1.0 or 2.0 mg/kg Bw (FIGS. 17B, 19B, 20, 21B)): best cardioprotection
